{
  "source": "PubChem BioAssay AID1902",
  "about": "(Broad Institute, 2009)",
  "note": "Activity calls are given as the source filed them.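 The calls were made as follows: active = EC50 no more than a set limit of log units above the highest dose; inactive = the rest.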",
  "data": [
    {"biological_target": "S. pyogenes SKKanGAS, kanamycin survival, BacTiterGlo, 6 h", "assay": "SKKanGAS survival reduction under kanamycin, dose response, streptokinase promoter inhibitor project, SKKanGAS strain, luminescence, dose confirmation (AID 1902);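 also: lower survival reflects blocked streptokinase promoter driving kanamycin resistance gene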", "values": [
      {"compound": "O=c1[nH]c(NNC(=S)NCc2ccccc2)nc2c1C1(CCCCC1)Cc1ccccc1-2", "EC50": "1.33 µM"},
      {"compound": "Cc1ccc(/C=C/C(=O)c2ccccc(=O)c2O)c(C)c1", "EC50": "3.57 µM"},
      {"compound": "O=C(O)C(c1ccccc1)N1C(=O)/C(=C\\c2ccc(-c3cccc(Cl)c3)o2)SC1=S", "note": "(configuration not stated)", "EC50": "1.94 µM"},
      {"compound": "CCCN(CCC)S(=O)(=O)c1ccc(C(=O)Nc2nnc(-c3cc(OC)cc(OC)c3)o2)cc1", "EC50": "0.192 µM"},
      {"compound": "O=C1c2ccccc2C(=O)c2[nH]c(=O)[nH]c21", "EC50": "9.21 µM"},
      {"compound": "Clc1ccc(/C=N/NC(=Nc2ccccc2)c2ccccn2)c(Cl)c1", "EC50": "13.5 µM"},
      {"compound": "Cc1coc2c1C(=O)C(=O)c1c-2ccc2c(C)cccc12", "EC50": "2.75 µM"},
      {"compound": "COc1cc(NS(=O)(=O)c2ccc3ccccc3c2)c2ncccc2c1", "EC50": "1.08 µM"},
      {"compound": "Cc1ncc(CO)c(/C=N/NC(=O)c2cc(Br)ccc2O)c1O", "EC50": "1.52 µM"},
      {"compound": "O=c1c2cn[nH]c2nc(SCc2c(F)cccc2F)n1-c1ccc(Cl)cc1", "EC50": "11.1 µM"},
      {"compound": "Cc1ccc(C)c(-c2cc(C(=O)Nc3sc(C)c(C)c3C(N)=O)c3ccccc3n2)c1", "EC50": "3.55 µM"},
      {"compound": "CCOC(=O)c1sc(NC(=O)Nc2ccc(Cl)cc2)cc1C", "EC50": "10.1 µM"},
      {"compound": "O=C(N/N=C/c1ccc([N+](=O)[O-])o1)c1ccc(NS(=O)(=O)c2cccs2)cc1", "EC50": "3.55 µM"},
      {"compound": "Cc1cc([N+](=O)[O-])cc(/C=N\\NC(=O)C2COc3ccccc3O2)c1O", "note": "(configuration not stated)", "EC50": "1.52 µM"},
      {"compound": "COc1cc(C(=O)N/N=C/c2ccc(OC(=O)c3ccccc3Cl)c(OC)c2)ccc1O", "EC50": "5.64 µM"},
      {"compound": "Oc1c(CN2CCN(c3ccccn3)CC2)cc(Cl)c2cccnc12", "EC50": "5.58 µM"},
      {"compound": "O=Cc1cc(N=Nc2ccccc2Cl)ccc1O", "EC50": "2.96 µM"},
      {"compound": "O=C(Nc1nnc(-c2ccncc2)o1)c1ccc2ccccc2c1", "EC50": "5.02 µM"},
      {"compound": "CN(C)c1nc(SCc2ccccc2Cl)nc2c1CCCC2", "EC50": "6.27 µM"},
      {"compound": "S=C(NCC1CCCCC1)Nc1ccc(Oc2ccccc2)cc1", "EC50": "11 µM"},
      {"compound": "O=C(CNC(=O)c1ccccc1Br)N/N=C\\c1cc([N+](=O)[O-])cc(Br)c1O", "EC50": "8.11 µM"},
      {"compound": "CC(=O)NC[C@H]1CN(c2ccc(N3CCOCC3)c(F)c2)C(=O)O1", "EC50": "0.158 µM"},
      {"compound": "Cc1ccn2c(Nc3ccccc3C)c(-c3ccccn3)nc2c1", "EC50": "2.19 µM"},
      {"compound": "COc1ccc(CCNC(=O)c2cccc(NS(=O)(=O)c3ccccc3F)c2)cc1OC", "EC50": "> 15 µM (inactive)"},
      {"compound": "CN=C(Nc1cc(Cl)ccc1Cl)SC1CC(=O)N(c2ccc(C(=O)OC)cc2)C1=O", "note": "(configuration not stated)", "EC50": "7.4 µM"},
      {"compound": "O=S(=O)(NCc1nnc2c(C(F)(F)F)cc(Cl)cn12)c1ccccc1", "EC50": "> 15 µM (inactive)"},
      {"compound": "COc1ccc(NC(=O)C(OC(=O)c2cnc(C)cn2)c2ccccc2)cc1Cl", "note": "(configuration not stated)", "EC50": "11.7 µM"},
      {"compound": "COc1ccc2ncc(S(=O)(=O)c3ccccc3)c(N3CCN(c4ccccc4)CC3)c2c1", "EC50": "3.19 µM"},
      {"compound": "CCCCC(=O)NC(=S)NNC(=O)CCc1ccccc1", "EC50": "5 µM"},
      {"compound": "Cc1ccc(-c2nn(-c3ccccc3)cc2/C=N/n2c(-c3cccs3)n[nH]c2=S)cc1", "EC50": "1.95 µM"},
      {"compound": "COc1ccc(NC(=O)CSc2ccc3nnc(-c4ccccn4)n3n2)c(OC)c1", "EC50": "> 15 µM (inactive)"},
      {"compound": "CSc1nc(SCC(=O)O)c2sc3nc(-c4ccccc4)c4c(c3c2n1)CCC4", "EC50": "1.14 µM"},
      {"compound": "O=C(CCC(=O)Nc1cc(C(F)(F)F)ccc1Cl)N/N=C\\c1cc([N+](=O)[O-])ccc1O", "EC50": "0.658 µM"},
      {"compound": "CSc1nsc2nc(=O)c(/C=C3\\C=Nc4ccccc43)c(N)n12", "EC50": "3.57 µM"},
      {"compound": "COc1ccccc1NC(=O)Nc1nc(CC(=O)Nc2cc(F)ccc2F)cs1", "EC50": "8.85 µM"},
      {"compound": "CCCN(CCC)S(=O)(=O)c1ccc(C(=O)Nc2nnc(COC)o2)cc1", "EC50": "5 µM"},
      {"compound": "c1ccc(CCNc2nc(-c3ccccn3)nc3ccccc23)cc1", "EC50": "0.884 µM"},
      {"compound": "COc1ccccc1-c1nnc(NC(=O)c2ccc(S(=O)(=O)N(C)CC3CCCO3)cc2)o1", "note": "(configuration not stated)", "EC50": "8.41 µM"},
      {"compound": "Cc1ccc(/C=N/NC(=O)C2=NNC(c3ccccc3)(c3ccccc3)C2)c(O)c1", "EC50": "4.01 µM"},
      {"compound": "Cc1ccc(CNC(=S)NC2CCC(C(C)(C)C)CC2)cc1", "note": "(configuration not stated)", "EC50": "3.4 µM"},
      {"compound": "COCCn1c(N)c(C(=O)Nc2sc3c(c2C(=O)OC)CCCC3)c2nc3ccccc3nc21", "EC50": "4.57 µM"},
      {"compound": "N#Cc1c(-c2c(Cl)cccc2Cl)noc1/C=C/Nc1ccc(C(=O)O)cc1", "EC50": "4.6 µM"},
      {"compound": "CCN(CC)c1nc(Nc2ccc([N+](=O)[O-])cc2)nc(N(CC)CC)n1", "EC50": "3.15 µM"},
      {"compound": "Cc1ccc(NS(=O)(=O)c2ccc(C3CCCCC3)cc2)cc1", "EC50": "4.32 µM"},
      {"compound": "OC(c1ccc(OCc2ccccc2)cc1)c1nnc(-c2ccccc2)o1", "note": "(configuration not stated)", "EC50": "13.4 µM"},
      {"compound": "COc1ccc2c(c1)c(CC(=O)NCc1cc([N+](=O)[O-])ccc1O)c(C)n2C(=O)c1ccc(Cl)cc1", "EC50": "9.89 µM"},
      {"compound": "CCOc1ccc(C)cc1S(=O)(=O)NC1CCCCCC1", "EC50": "> 15 µM (inactive)"},
      {"compound": "O=C(CN1c2ccccc2Sc2ccccc21)NNC(=S)Nc1ccc(Cl)cc1", "EC50": "2.67 µM"},
      {"compound": "O=C(COc1ccc(Cl)cc1Cl)NNC(=S)NC(=O)c1ccco1", "EC50": "0.102 µM"},
      {"compound": "Cc1n[nH]c(C)c1CCOc1ccc(C(C)C)cc1", "EC50": "11.2 µM"},
      {"compound": "CCCOc1ccc(C2C(C(=O)c3cc4ccccc4o3)=C(O)C(=O)N2c2cc(C)on2)cc1OC", "note": "(configuration not stated)", "EC50": "1.98 µM"},
      {"compound": "O=c1c2cc(Cl)ccc2nc(-c2ccc(Cl)c(Cl)c2)n1O", "EC50": "0.235 µM"},
      {"compound": "CC(C)C(=O)Nc1ccc(C(=O)NNC(=S)NC(=O)c2cccs2)cc1", "EC50": "6.57 µM"},
      {"compound": "CCSc1nsc(NC(=O)Nc2cccc(F)c2)n1", "EC50": "7.63 µM"},
      {"compound": "CC(C)c1ccc(OCC(=O)NNC(=S)NC(=O)C2CC2)cc1", "EC50": "0.797 µM"},
      {"compound": "O=C(NNC(=S)NC(=O)c1ccc(Br)cc1)c1cccc([N+](=O)[O-])c1", "EC50": "0.892 µM"},
      {"compound": "O=C(/C=C/c1ccccc1)NC(=S)NNC(=O)c1ccco1", "EC50": "2.76 µM"},
      {"compound": "CCc1cccc2c(C(=O)COC(=O)c3ccc([N+](=O)[O-])s3)c[nH]c12", "EC50": "0.735 µM"},
      {"compound": "CCCCOc1ccc(-c2c(C#N)c(N)nc(SCC(N)=O)c2C#N)cc1", "EC50": "4.61 µM"},
      {"compound": "COc1ccc(C(=O)c2c(C(F)(F)F)oc3c2C(=O)c2ccccc2C3=O)cc1", "EC50": "1.99 µM"},
      {"compound": "Cc1ccc(C(=O)/C=C/C(=O)c2ccc(C)cc2)cc1", "EC50": "3.61 µM"},
      {"compound": "CC(C)C1O/C(=N/C(=O)Nc2ccc(Cl)c(Cl)c2)NC1=O", "note": "(configuration not stated)", "EC50": "2.53 µM"},
      {"compound": "COc1ccc([C@H]2Oc3cc(O)cc(O)c3C(=O)C2[C@@H]2C(=O)c3c(O)cc(O)cc3O[C@@H]2c2ccc(OC)cc2)cc1", "note": "(some centres not stated)", "EC50": "1.61 µM"},
      {"compound": "COc1ccc2c(c1)c(CC(=O)Nc1cccc(S(N)(=O)=O)c1)c(C)n2C(=O)c1ccc(Cl)cc1", "EC50": "3.28 µM"},
      {"compound": "CCOc1cc(/C=C\\[N+](=O)[O-])ccc1OCC(=O)Nc1ccccc1C", "EC50": "9.44 µM"},
      {"compound": "Brc1ccccc1C1Nc2cccc3cccc(c23)N1", "EC50": "5.03 µM"},
      {"compound": "COc1cc(OC)cc(C(=O)Nc2nc(CC(=O)NCc3ccccc3OC)cs2)c1", "EC50": "12.4 µM"},
      {"compound": "O=C(Nc1ccccc1C(=O)O)c1cccc(NC(=O)c2ccc(Br)o2)c1", "EC50": "4.96 µM"},
      {"compound": "CCCn1c(C2CCCN2c2nc(-c3cccc(Br)c3)cs2)nc2cc(Cl)c(Cl)cc21", "note": "(configuration not stated)", "EC50": "3.68 µM"},
      {"compound": "CCN(CCn1cccn1)C(=O)CC1C(=O)NCCN1CCc1ccccc1", "note": "(configuration not stated)", "EC50": "> 15 µM (inactive)"},
      {"compound": "Cc1ccc(C2C(C(=O)c3cc4ccccc4o3)=C(O)C(=O)N2c2cc(C)on2)cc1", "note": "(configuration not stated)", "EC50": "2.1 µM"},
      {"compound": "Cc1ccc(NC(=O)NCc2ccccn2)cc1Cl", "EC50": "> 15 µM (inactive)"},
      {"compound": "Oc1c(Cl)cc(Cl)cc1C(C#Cc1ccccc1)N1CCOCC1", "note": "(configuration not stated)", "EC50": "12.2 µM"},
      {"compound": "S=C(NCc1cccs1)Nc1cc(Cl)cc(Cl)c1", "EC50": "7.18 µM"},
      {"compound": "CCOc1ccc(-c2nnc(NC(=O)c3ccc(OCC(C)C)c(OC)c3)o2)cc1", "EC50": "0.347 µM"},
      {"compound": "COC(=O)[C@@H]1[C@@H](C#N)C2(c3ccccc3-c3ccccc32)N(c2ccc(Cl)cc2)N1C#N", "EC50": "9.76 µM"},
      {"compound": "Oc1cccc2ccc(/C=C/c3c(F)cccc3Cl)nc12", "EC50": "0.43 µM"}
    ]}
  ]
}
